Structures can show the parent of a compound that is named as a salt.
How the values were obtained:
Type in all cases: cell-based
P. aeruginosa ATCC 27853 = test: MIC, microtiter broth dilution; settings: Pseudomonas aeruginosa, ATCC27853, 18 h
Experimental: (§1) The minimum inhibitory concentration (MIC), the lowest concentration of the antibiotic which inhibits growth of the test organism, is determined by the microtiter broth dilution method using 0.1 ml Muller-Hinton II broth (Baltimore Biological Laboratories) per well. A suitable oxygen scavenger (i.e., cysteine or dithiothreitol) is added to the assay medium for the testing of compounds according to Formula I because of the sensitivity of those compounds to oxidation. An inoculum level of 1-5×10^5 CFU/ml and a range of antibiotic concentrations (32 0.004 μg/ml) are used.

E. coli ATCC 25922 = test: MIC, microtiter broth dilution; settings: Escherichia coli, ATCC25922, 18 h
Experimental: as §1

S. marcescens FPOR 87-33 = test: MIC, microtiter broth dilution; settings: Serratia marcescens, FPOR8733, 18 h
Experimental: as §1

[1] = system: S. aureus UBMS 90-3 (tetracycline-sensitive); test: MIC, microtiter broth dilution; settings: Staphylococcus aureus, 18 h
Experimental: as §1

[2] = system: E. coli UBMS 90-5 (tetracycline-sensitive); test: MIC, microtiter broth dilution; settings: Escherichia coli, 18 h
Experimental: as §1

E. faecalis ATCC 29212 = test: MIC, microtiter broth dilution; settings: Enterococcus faecalis, ATCC29212, 18 h
Experimental: as §1

[3] = system: S. haemolyticus AVAH 88-3; test: MIC, microtiter broth dilution; settings: Staphylococcus haemolyticus, AVAH883, 18 h; S. haemolyticus AVAH 88-3; in the presence of cysteine (0.05%); read-out: MIC
Experimental: as §1

[4] = system: S. aureus IVES 1983 (methicillin-resistant); test: MIC, microtiter broth dilution; settings: Staphylococcus aureus, 18 h
Experimental: as §1

M. morganii NEMC 87-119 = test: MIC, microtiter broth dilution; settings: Morganella morganii, NEMC87119, 18 h
Experimental: as §1

[5] = system: S. aureus IVES 2943 (methicillin-resistant); test: MIC, microtiter broth dilution; settings: Staphylococcus aureus, 18 h
Experimental: as §1

[6] = system: E. coli UBMS 89-2 (tetracycline-sensitive); test: MIC, microtiter broth dilution; settings: Escherichia coli, 18 h
Experimental: as §1

[7] = system: tetracycline sensitive and resistant Gram-positive and Gram-negative bacteria; test: In vitro antibacterial evaluation, statements on the whole panel
Experimental: as §1

[8] = system: X. maltophilia FPOR 87-210; test: MIC, microtiter broth dilution; settings: Stenotrophomonas maltophilia, FPOR87210, 18 h, no cysteine stated
Experimental: as §1

[9] = system: E. coli UBMS 88-2 (tetracycline-sensitive); test: MIC, microtiter broth dilution; settings: Escherichia coli, 18 h, no cysteine stated
Experimental: as §1

E. coli UBMS 90-4 (tetM) = test: MIC, microtiter broth dilution; settings: Escherichia coli, 18 h
Experimental: as §1

S. aureus ATCC 29213 = test: MIC, microtiter broth dilution; settings: Staphylococcus aureus, ATCC29213, 18 h, no cysteine stated
Experimental: as §1

[10] = system: S. aureus UBMS 88-4 (tetracycline-sensitive); test: MIC, microtiter broth dilution; settings: Staphylococcus aureus, 18 h, no cysteine stated
Experimental: as §1

E. coli UBMS 88-1 (tetB) = test: microbe, parasite or virus in culture; settings: Escherichia coli, 18 h
Experimental: as §1

[11] = system: S. aureus UBMS 88-7 (tetK); test: microbe, parasite or virus in culture; settings: Staphylococcus aureus, 18 h
Experimental: as §1

[12] = system: S. aureus UBMS 88-5 (tetM); test: microbe, parasite or virus in culture; settings: Staphylococcus aureus, 18 h
Experimental: as §1

[13] = in the presence of cysteine (0.05%)

CCN(CC)c1cc(N)c(O)c2c1C[C@H]1C[C@H]3[C@H](N(C)C)C(O)=C(C(N)=O)C(=O)[C@@]3(O)C(O)=C1C2=O [C, 9-Amino-7-(diethylamino)-6-demethyl-6-deoxytetracycline sulfate]
MIC (P. aeruginosa ATCC 27853; [13]): 8 µg/mL | MIC (E. coli ATCC 25922; [13]): 0.5 µg/mL | MIC (S. marcescens FPOR 87-33; [13]): 4 µg/mL | MIC [1, 13]: 0.03 µg/mL | MIC [2, 13]: 1 µg/mL | MIC (E. faecalis ATCC 29212; [13]): 0.12 µg/mL | MIC [3]: 0.12 µg/mL | MIC [4, 13]: 0.25 µg/mL | MIC (M. morganii NEMC 87-119; [13]): 2 µg/mL | MIC [5, 13]: 0.25 µg/mL | MIC [6, 13]: 0.5 µg/mL | antibacterial activity versus D ([7]; comparator D): enhancement of antibacterial activity

CCN(CC)c1ccc(O)c2c1C[C@H]1C[C@H]3[C@H](N(C)C)C(O)=C(C(N)=O)C(=O)[C@@]3(O)C(O)=C1C2=O [D, 7-(Diethylamino)-6-demethyl-6-deoxytetracycline sulfate]
MIC (P. aeruginosa ATCC 27853; no cysteine stated): 32 µg/mL | MIC (E. coli ATCC 25922; no cysteine stated): 1 µg/mL | MIC [8]: 0.25 µg/mL | MIC (S. marcescens FPOR 87-33; no cysteine stated): 32 µg/mL | MIC [9]: 2 µg/mL | MIC (E. coli UBMS 90-4 (tetM)): > 32 µg/mL | MIC ([1]; no cysteine stated): 0.03 µg/mL | MIC ([2]; no cysteine stated): 2 µg/mL | MIC (E. faecalis ATCC 29212; no cysteine stated): 8 µg/mL | MIC (S. aureus ATCC 29213): < 0.015 µg/mL | MIC [10]: 0.03 µg/mL | MIC ([4]; no cysteine stated): 8 µg/mL | MIC (M. morganii NEMC 87-119; no cysteine stated): 32 µg/mL | MIC ([5]; no cysteine stated): 8 µg/mL | MIC ([6]; no cysteine stated): 4 µg/mL | Antibacterial potency in the presence of cysteine ([7]; in the presence of cysteine versus without): not enhanced | MIC (E. coli UBMS 88-1 (tetB)): 32 µg/mL | MIC [11]: 0.12 µg/mL | MIC [12]: 16 µg/mL

— US5281628A, “9-amino-7-(substituted)-6-demethyl-6-deoxytetracyclines” (American Cyanamid Company, priority 1991, dated 1994)
